Laboratory results: patent US10184112B2, “Culture medium additive for use in serum-free culturing of animal cell, kit and use thereof” (Two Cells Co., Ltd., priority 2006, dated 2019)
Entries after “also recorded” stand apart in the source; their conditions may differ.

Test system: Erk 1/2
Experiment: Mitogenic signal transduction, western blot for phosphorylated Erk 1/2 (FIGS. 11, 12)
Assay type: cell-based
Conditions: human mesenchymal stem cells stimulated; compared with controlled cells (not stimulated)
Method: For the purpose of clarifying a mechanism of cell proliferation in a serum-free culture medium, study was further conducted on activation of a mitogenic signal transduction system caused by each additive factor added into a serum-free culture medium. An active state of the mitogenic signal transduction system caused by each additive factor was analyzed by a western blot method. Here, in protein phosphoenzymes that are particularly closely related to cell proliferation, an extracellular signal control kinase Erk 1/2 and an Akt (a protein phosphoenzyme located downstream to PI3K, and related to regulations of cell functions) were focused in the present example. When the Erk1 1/2 and the Akt are phosphorylated, they are converted into active forms. […] The cultured cells were washed twice with PBS, and were then further cultured for 16 hours in a serum-free culture medium containing 1.25 mg/ml of BSA (bovine serum albumin). After that, the cultured cells were incubated for minutes respectively: (i) in stimulating solutions respectively containing growth factors (E: EGF, F: FGF, G: PDGF, H: HGF, I: insulin, J: TGF-β), dexamethasone (D), transferrin (T); […] B1, A6: phosphatidic acid, A7: phosphatidyl choline); and (iii) in a controlling solution containing none of them. Further, each of the stimulating solutions, and the controlling solution were removed by suction on ice, and then, the cells were washed twice with PBS. The cells thus washed were dissolved in lysis buffer. The resultant cell lysis solution was centrifuged by 6.500 g for 10 minutes, and its supernatant liquid was electrophoresed on 10% SDS-polyacrylamide gel. Proteins thus separated into fractions were transferred on a PVDF membrane (made by Millipore Co.), and then, the fractions were analyzed with antiphosphorylation-specific Erk 1/2 antibody, or antiphosphorylation-specific Akt antibody (both are made by Cell Signaling technology Inc.).

Row | Compound | phosphorylation of the Erk 1/2
1 | EGF: epidermal growth factor | more phosphorylated
2 | HGF: growth factor added to the serum-free culture medium | more phosphorylated; also recorded: promoted in view of concentration dependence
3 | 3-sn-phosphatidic acid from egg yolk | strongly promoted
4 | PDGF | more phosphorylated
5 | 3-sn-phosphatidyl choline from egg yolk | promoted
6 | insulin: medium supplement | more phosphorylated
7 | FGF: growth factor of the fibroblast growth factor family, preferably FGF-2 (bFGF) | more phosphorylated
8 | CCCCC/C=C\C/C=C\C/C=C\C/C=C\CCCC(=O)O [arachidonic acid] | promoted
9 | CCCCCCCC/C=C\CCCCCCCC(=O)O [oleic acid] | promoted
10 | CCCCC/C=C\C/C=C\CCCCCCCC(=O)O [linoleic acid] | promoted

Test system: Akt
Experiment: Mitogenic signal transduction, western blot for phosphorylated Akt (FIGS. 11, 12)
Assay type: cell-based
Conditions: human mesenchymal stem cells stimulated; compared with controlled cells (not stimulated)
Method: For the purpose of clarifying a mechanism of cell proliferation in a serum-free culture medium, study was further conducted on activation of a mitogenic signal transduction system caused by each additive factor added into a serum-free culture medium. An active state of the mitogenic signal transduction system caused by each additive factor was analyzed by a western blot method. Here, in protein phosphoenzymes that are particularly closely related to cell proliferation, an extracellular signal control kinase Erk 1/2 and an Akt (a protein phosphoenzyme located downstream to PI3K, and related to regulations of cell functions) were focused in the present example. When the Erk1 1/2 and the Akt are phosphorylated, they are converted into active forms. In a culture medium containing 10% FBS on a 12-well plate, human mesenchymal stem cells (three cell lines) were cultured until the cells were in a subconfluent state. The cultured cells were washed twice with PBS, and were then further cultured for 16 hours in a serum-free culture medium containing 1.25 mg/ml of BSA (bovine serum albumin). […] Proteins thus separated into fractions were transferred on a PVDF membrane (made by Millipore Co.), and then, the fractions were analyzed with antiphosphorylation-specific Erk 1/2 antibody, or antiphosphorylation-specific Akt antibody (both are made by Cell Signaling technology Inc.).

Row | Compound | phosphorylation of the Akt
11 | HGF: growth factor added to the serum-free culture medium | also promoted
12 | 3-sn-phosphatidic acid from egg yolk | strongly promoted

Test system: human mesenchymal stem cell
Experiment: not given
Conditions: added to a culture medium containing 10% FBS; cited from earlier work

Row | Compound | proliferation of a human mesenchymal stem cell | wingless/int (wnt) signal pathway
13 | [Cl-].[Li+] [lithium chloride] | promoting proliferation | activates
